The structures appear in SMILES notation.

We go through 1 compound from patent US20230028441A1, “NOVEL HETEROARYL-TRIAZOLE COMPOUNDS AS PESTICIDES” (Bayer Aktiengesellschaft, priority 2019, published 2023).

What all share (assay type): in vivo
Assay [1] relates to fall armyworm larvae (Spodoptera frugiperda). Nature of the assay: Spodoptera frugiperda spray test (maize leaf sections). Conditions: 168 h. The method, boiled down: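 Maize leaf sections were sprayed with compound formulated in acetone/DMF and diluted in water containing 1000 ppm emulsifier. Once dry, sections were infested with fall armyworm larvae. Mortality (%) was scored after 7 days.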

Assay [2] deals with green peach aphid (Myzus persicae). Nature of the assay: Myzus persicae spray test. As to conditions: foliar, 120 h, 100 g/ha, after 5 days, Chinese cabbage leaf disks. The method, boiled down:
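Chinese cabbage leaf disks carrying all instars of Myzus persicae were sprayed with compound. The formulation was acetone/dimethylformamide diluted in water with 1000 ppm alkylarylpolyglycol ether emulsifier. Percent mortality was scored after 5 days, with 100% meaning all aphids killed.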

For assay [3], the system named is larvae of the banded cucumber beetle (Diabrotica balteata). Briefly: Diabrotica balteata spray test. Conditions: 168 h, 100 g/ha (=32 μg/well), after 7 days, wheat seeds, read-out: efficacy (seedlings grown up). A digest of the protocol: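 Germinated wheat seedlings (5 per well, agar plates) sprayed with compound in acetone/DMF diluted in water with 1000 ppm emulsifier, then infested with 10-20 larvae per unit. Efficacy scored after 7 days as % seedling growth relative to untreated, uninfested control (100% = normal growth, 0% = none).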

Assay [4] deals with Anopheles funestus strain FUMOZ-R. Nature of the assay: Anopheles funestus test (ANPHFU surface treatment & contact assay). As to conditions: surface concentration 20 mg/m^2, 30 minutes exposure, 24 hours after contact, read-out: efficacy (mortality). As for the experimental part:
(§1) Solvent: Aceton+2000 ppm rapeseed oil methyl ester (RME)
In order to produce a sufficient, active ingredient containing solution it is necessary to solve the test compound in the solvent-mix (acetone at 2 mg/ml/RME 2000 ppm). This solution is pipetted onto a glazed tile and after evaporation of the acetone, adult mosquitoes of the species Anopheles funestus strain FUMOZ-R (Hunt et al., Med. Vet. Entomol. 2005 September; 19(3): 271-275) are placed onto the dried surface. The exposure time is 30 minutes.
(§2) Mortality in percent (%) is determined 24 hours after contact of the insects to the treated surface. 100% mortality means that all tested insects are dead, whereas 0% means that no insect died.

Assay [5] concerns brown planthopper (Nilaparvata lugens). Nature of the assay: Nilaparvata lugens spray test. As to conditions: in Oryza sativa, 96 h. The method, boiled down: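 Rice plants (Oryza sativa) sprayed with compound in acetone/DMF diluted in water containing 1000 ppm alkylarylpolyglycol ether emulsifier, then infested with planthoppers. Mortality % scored after 4 days (100% = all killed, 0% = none killed).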

Assay [6] relates to adult cat fleas (Ctenocephalides felis). Nature of the assay: Ctenocephalides felis in-vitro contact test, adult cat flea. As to conditions: 5 μg/cm^2 (=500 g/ha), after 48 hours, read-out: efficacy (fleas dead or moribund). A digest of the protocol:
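Acetone solutions were coated on glass tube walls, 900 ppm giving 5 μg/cm^2. After drying, 5-10 adult fleas per tube were held 48 h at room temperature. Fleas unable to climb away from a 45-50 °C heating plate within 5 min were scored dead or moribund, as % efficacy.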

Assay [7] concerns Musca domestica strain WHO-N. Nature of the assay: Musca domestica test (MUSCDO surface treatment & contact assay). As to conditions: 24 hours after contact, read-out: efficacy (mortality). As for the experimental part:
as §1
In order to produce a sufficient, active ingredient containing solution it is necessary to solve the test compound in the solvent-mix (acetone at 2 mg/ml/RME 2000 ppm). This solution is pipetted onto a glazed tile and after evaporation of the acetone, adult flies of the species Musca domestica strain WHO-N are placed onto the dried surface. The exposure time is 30 minutes. Mortality in percent (%) is determined 24 hours after contact of the insects to the treated surface. 100% mortality means that all tested insects are dead, whereas 0% means that no insect died.

Assay [8] concerns cattle tick larvae (Rhipicephalus microplus), strain Parkhurst, resistant against synthetic pyrethroids. Briefly: Rhipicephalus (Boophilus) microplus in-vitro contact test, larval cattle tick. As to conditions: 5 μg/cm^2 (=500 g/ha), after 48 hours, read-out: efficacy (larvae dead or moribund). The method, boiled down: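 Acetone solutions of compound were coated on glass tube walls (900 ppm giving 5 μg/cm^2) and dried. 20–50 pyrethroid-resistant Parkhurst larvae were held per tube at 27° C and 85% relative humidity; after 48 h negative geotaxis scored efficacy as percent larvae dead or moribund.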

The subject of assay [9] is adult brown dog ticks (Rhipicephalus sanguineus). Briefly: Rhipicephalus sanguineus in-vitro contact test with adult brown dog ticks. Conditions: after 48 hours, read-out: efficacy (ticks dead or moribund). A digest of the protocol: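 Compound in acetone coated onto glass tube inner walls at 900 ppm, giving 5 μg/cm^2. Adult ticks (5-10 per tube) held at room temperature for 48 h, then placed on a 45-50° C. heating plate for up to 5 min. Ticks unable to climb away counted dead or moribund; efficacy given as % dead/moribund.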

Assay [10] has as its system Blattella germanica strain PAULINIA
Briefly: Blattella germanica test (BLTTGE surface treatment & contact assay). Conditions: 24 hours after contact, read-out: efficacy (mortality). The procedure:
as §1
In order to produce a sufficient, active ingredient containing solution it is necessary to solve the test compound in the solvent-mix (acetone at 2 mg/ml/RME 2000 ppm). This solution is pipetted onto a glazed tile and after evaporation of the acetone, adult animals of the species Blattella germanica strain PAULINIA are placed onto the dried surface. The exposure time is 30 minutes.
as §2

For assay [11], the system named is Aedes aegypti strain MONHEIM. Briefly: Aedes aegypti test (AEDSAE surface treatment & contact assay). As to conditions: 24 hours after contact, read-out: efficacy (mortality). As for the experimental part:
as §1
In order to produce a sufficient, active ingredient containing solution it is necessary to solve the test compound in the solvent-mix (acetone at 2 mg/ml/RME 2000 ppm). This solution is pipetted onto a glazed tile and after evaporation of the acetone, adult mosquitoes of the species Aedes aegypti strain MONHEIM are placed onto the dried surface. The exposure time is 30 minutes. Mortality in percent (%) is determined 24 hours after contact of the insects to the treated surface. 100% mortality means that all tested insects are dead, whereas 0% means that no insect died.

Where [12] appears, read: surface concentration 4 mg/m^2, 30 minutes exposure.
Where [13] appears, read: surface concentration 20 mg/m^2, 30 minutes exposure.

Usually mortality stands for the percentage killed. As to `C[C@H](NC(=O)c1cc(OC(F)(F)F)cc(C2CC2)c1)c1nc(N(C)C)nn1-c1ncccn1` [I-138], the mortality at 100 g/ha in assay [1] was 100%; in [2], 90%. Moreover, the pest or weed control at 32 µg/disc, 100 g/ha in [3] was determined as 100%. Further, the mortality at 20 mg/m2 in [4], in assay [7] (setting [13]), in [10] (setting [13]) and in assay [11] (setting [13]) was 90 to 100% throughout. The same compound yielded a mortality at 500 g/ha in [5] of 100%. The pest or weed control at 5 µg/cm2 in assay [6] and in assay [8] was 100% throughout. The mortality at 4 mg/m2 in [7] (setting [12]), in assay [10] (setting [12]) and in [11] (setting [12]) was 90 to 100% each time. In addition, the pest or weed control at 1 µg/cm2, 100 g/ha in assay [9] (1 μg/cm^2 (=100 g/ha)) worked out at 100%. In addition, the pest or weed control at 5 µg/cm2, 500 g/ha in assay [9] (5 μg/cm^2 (=500 g/ha)) worked out at 100%.
